The test system of data set [1] is golden syrian hamsters. The data set can be described thus: Test for anti-hyperlipidemia activity in hamsters (blood HDL-c levels). Format: in vivo. As to conditions: male golden syrian hamsters; 3 mg/kg orally for 5 days; serum HDL-cholesterol 4 hours after last administration; vs vehicle control. An excerpt:
[…] Test for Anti-Hyderlipidemia Activity in Hamsters
1. Experimental animals As test animals, 8-week-old male golden syrian hamsters were purchased and used in the experimental. The animal facility was kept at constant temperature and constant humidity with a 12-hr dark/12-hr light cycle, and the animals were allowed to access food and water ad libitum.
2. Experimental for Anti-Hyperlipidemia Activity in Hamsters
The test animals were used in the test after an acclimation of 1 week. The test animals were divided according to body weight into several groups, each consisting of 5-8 animals. 3 mg/kg of each test compound (CETP inhibitor) was administered orally to the animals. Each test compounds was suspended in a solvent vehicle that is a solution of 5% ethanol, 10% solutol and 85% deionized water (DW), to be used. Each of test compounds suspended in a solvent vehicle was administered orally to the […] for 5 days. To the control group, a solvent vehicle itself was administered. And then, after 4 hours from the last administration, blood was collected through the cardiac puncture. The collected blood was centrifuged at 3000 rpm for 15 minutes, and the concentration of HDL-cholesterol (Biosystem) in the separated serum was measured using a biochemical analyzer (ILab 300 plus, Instrumentation Laboratory).
3. Statistical Processing
All the results were expressed as mean±SEM, and each test group and the control group were compared using one-way ANOVA test (Dunnett's test, p<0.001) in order to determine the effect of each test group.

Data set [2] deals with T1, cholesteryl ester transfer protein (Homo sapiens, UniProt P11597).
T1 construct: As a source of cholesteryl ester transfer protein, plasma from healthy humans was used; from tissue; host or cells: plasma from healthy humans
T1 sequence (P11597 18-493): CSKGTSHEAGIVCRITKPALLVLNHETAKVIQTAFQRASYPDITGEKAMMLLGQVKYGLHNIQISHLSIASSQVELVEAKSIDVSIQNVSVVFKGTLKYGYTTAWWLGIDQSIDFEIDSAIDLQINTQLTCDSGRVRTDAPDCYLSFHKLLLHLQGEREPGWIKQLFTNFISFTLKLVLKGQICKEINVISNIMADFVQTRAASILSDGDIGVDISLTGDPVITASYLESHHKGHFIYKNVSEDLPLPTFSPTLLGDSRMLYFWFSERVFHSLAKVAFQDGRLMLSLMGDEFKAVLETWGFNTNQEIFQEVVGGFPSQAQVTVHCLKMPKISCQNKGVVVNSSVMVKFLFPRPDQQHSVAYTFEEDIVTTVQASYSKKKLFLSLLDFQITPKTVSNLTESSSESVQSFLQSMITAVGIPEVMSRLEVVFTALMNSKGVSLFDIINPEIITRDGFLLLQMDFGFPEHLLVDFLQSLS
The data set can be described thus: In vitro test for the ability to inhibit cholesteryl ester transfer. It counts as biochemical. As to conditions: [3H]-cholesteryl oleate transfer from rHDL-agarose to LDL; human plasma as CETP source; 37° C.; 16-10000 nM, duplicate. The method, boiled down:
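Human plasma served as the CETP source, with human LDL (0.25 mg/ml) as acceptor and agarose-immobilised recombinant HDL carrying [3H]-cholesteryl oleate (0.25 mg/ml) as donor, at 37 °C. Compounds were run in duplicate at 16–10000 nM. Transferred radioactivity in the supernatant was counted by beta detection, and IC50 was fitted from the fraction of label transferred to LDL.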

For data set [3] the following is noted: cited from earlier work.

As to `COc1cc(F)c(C(C)C)cc1C1=C(CN2C(=O)O[C@H](c3cc(C(F)(F)F)cc(C(F)(F)F)c3)[C@@H]2C)CC(C(F)(F)F)CC1` (stereo partly drawn) [Compound 48, (4S,5R)-5-(3,5-bis(trifluoromethyl)phenyl)-3-((2-(4-fluoro-5-isopropyl-2-methoxyphenyl)-5-(trifluoromethyl)cyclohex-1-enyl)methyl)-4-methyloxazolidin-2-one], the “HDL-c Increase (%)” value in data set [1] turned out to be 41%. Further, in data set [2], the IC50 amounted to 0.005 µM. `COc1cc(F)c(C(C)C(F)(F)F)cc1C1=C(CN2C(=O)O[C@H](c3cc(C(F)(F)F)cc(C(F)(F)F)c3)[C@@H]2C)CC(C)(C)CC1` (stereo partly drawn) [Compound 132, (4S,5R)-5-(3,5-bis(trifluoromethyl)phenyl)-3-((2-(4-fluoro-2-methoxy-5-(1,1,1-trifluoropropan-2-yl)phenyl)-5,5-dimethylcyclohex-1-enyl)methyl)-4-methyloxazolidin-2-one]: the “HDL-c Increase (%)” value in data set [1] was 33%. The IC50 in data set [2] amounted to 0.05 µM. `CCOC(=O)N1c2ccc(C(F)(F)F)cc2[C@@H](N(Cc2cc(C(F)(F)F)cc(C(F)(F)F)c2)C(=O)OC)C[C@H]1CC` [Torcetrapib]: in data set [3] (clinical trials terminated), the “effect on blood pressure” value is reported as “increases in blood pressure” and the effect on mortality entry was “increase in mortality”. Moreover, the “effect on hormone levels” value in data set [3] (hormones associated with elevation in blood pressure) was “increases the levels of hormones, such as aldosterone and cortisol”. Moreover, in data set [3] (in vivo), the “effect on vascular wall” value is “increases the thickness of the vascular wall to cause inflammation”.

For the molecule `COc1cc(F)c(C(C)C)cc1C1=C(CN2C(=O)O[C@H](c3cc(C(F)(F)F)cc(C(F)(F)F)c3)[C@@H]2C)CC(C)CC1` (some centres unmarked) [Compound 25], the “HDL-c Increase (%)” value in data set [1] came out at 33%. Moreover, in data set [2], half-maximal inhibition (IC50) was put at 0.2 µM. As to `COC(=O)c1ccc(OC)c(C2=C(CN3C(=O)O[C@H](c4cc(C(F)(F)F)cc(C(F)(F)F)c4)[C@@H]3C)CCCC2)c1` [Compound 36, methyl 3-(2-(((4S,5R)-5-(3,5-bis(trifluoromethyl)phenyl)-4-methyl-2-oxooxazolidin-3-yl)methyl)cyclohex-1-enyl)-4-methoxybenzoate], the “HDL-c Increase (%)” value in data set [1] came to 11%. The same molecule gave an IC50 in data set [2] of 1.09 µM.

In the case of `COc1ccc(C(C)(C)C)cc1C1=C(CN2C(=O)O[C@H](c3cc(C(F)(F)F)cc(C(F)(F)F)c3)[C@@H]2C)CC(C)(C)CC1` [Compound 115, (4S,5R)-5-(3,5-bis(trifluoromethyl)phenyl)-3-((2-(5-tert-butyl-2-methoxyphenyl)-5,5-dimethylcyclohex-1-enyl)methyl)-4-methyloxazolidin-2-one], the “HDL-c Increase (%)” value in data set [1] is 29%. The molecule also showed an IC50 in data set [2] of 0.01 µM. On to `COc1ccc(CC(C)(C)C(=O)O)cc1C1=C(CN2C(=O)O[C@H](c3cc(C(F)(F)F)cc(C(F)(F)F)c3)[C@@H]2C)CC(C)(C)CC1` [Compound 286, 3-(3-(2-(((4S,5R)-5-(3,5-bis(trifluoromethyl)phenyl)-4-methyl-2-oxooxazolidin-3-yl)methyl)-4,4-dimethylcyclohex-1-enyl)-4-methoxyphenyl)-2,2-dimethylpropanoic acid], for which, in data set [1], the “HDL-c Increase (%)” value was 42%. This molecule also gave an IC50 in data set [2] of 0.012 µM. Consider `COc1ccc(C(F)(F)F)cc1C1=C(CN2C(=O)O[C@H](c3cc(C(F)(F)F)cc(C(F)(F)F)c3)[C@@H]2C)CC(C)(C)CC1` [Compound 97, (4S,5R)-5-(3,5-bis(trifluoromethyl)phenyl)-3-((2-(2-methoxy-5-(trifluoromethyl)phenyl)-5,5-dimethylcyclohex-1-enyl)methyl)-4-methyloxazolidin-2-one], for which, in data set [1], the “HDL-c Increase (%)” value stood at 22%. The molecule also came in with an IC50 in data set [2] of 0.02 µM. As to `COc1ccc(C(C)C)cc1C1=C(CN2C(=O)O[C@H](c3cc(C(F)(F)F)cc(C(F)(F)F)c3)[C@@H]2C)CC(C(F)(F)F)CC1` (stereo partly drawn) [Compound 108, (4S,5R)-5-(3,5-bis(trifluoromethyl)phenyl)-3-((2-(5-isopropyl-2-methoxyphenyl)-5-(trifluoromethyl)cyclohex-1-enyl)methyl)-4-methyloxazolidin-2-one], in data set [1], the “HDL-c Increase (%)” value stood at 23%. Moreover, in data set [2], the IC50 worked out at 0.02 µM.

Take `CCC(CC)CC1(C(=O)Nc2ccccc2SC(=O)C(C)C)CCCCC1` [Dalcetrapib]: the “rise in HDL-C” value in data set [3] (in vivo) is given as “insufficient rise in HDL-C”. As for `O=C(O)c1cccnc1` [Niacin], the side effects entry in data set [3] (relatively large doses) is recorded as “facial flushing”. As for `COc1cc(F)c(C(C)C)cc1C1=C(CN2C(=O)O[C@H](c3cc(C(F)(F)F)cc(C(F)(F)F)c3)[C@@H]2C)CC(C)(C)CC1` [Compound 19, (4S,5R)-5-(3,5-bis(trifluoromethyl)phenyl)-3-((2-(4-fluoro-5-isopropyl-2-methoxyphenyl)-5,5-dimethylcyclohex-1-enyl)methyl)-4-methyloxazolidin-2-one], the “HDL-c Increase (%)” value in data set [1] is 35%. Regarding `COc1ccc(N(C)C(C)=O)cc1C1=C(CN2C(=O)O[C@H](c3cc(C(F)(F)F)cc(C(F)(F)F)c3)[C@@H]2C)CC(C)(C)CC1` [Compound 112, N-(3-(2-(((4S,5R)-5-(3,5-bis(trifluoromethyl)phenyl)-4-methyl-2-oxooxazolidin-3-yl)methyl)-4,4-dimethylcyclohex-1-enyl)-4-methoxyphenyl)-N-methylacetamide], the “HDL-c Increase (%)” value in data set [1] came out at 43%. In data set [2], it took 0.008 µM to reach half-maximal inhibition (IC50). On the same counts, the results for `COc1cc(F)c(C(C)C)cc1C1=C(CN2C(=O)O[C@H](c3cc(C(F)(F)F)cc(C(F)(F)F)c3)[C@@H]2C)CC2(CC1)CC2` [Compound 274, (4S,5R)-5-(3,5-bis(trifluoromethyl)phenyl)-3-((6-(4-fluoro-5-isopropyl-2-methoxyphenyl)spiro[2.5]oct-5-en-5-yl)methyl)-4-methyloxazolidin-2-one] are 21% and 0.014 µM.

Regarding `COc1cc(F)c(C2(C)CC2)cc1C1=C(CN2C(=O)O[C@H](c3cc(C(F)(F)F)cc(C(F)(F)F)c3)[C@@H]2C)CC(C)(C)CC1` [Compound 302, (4S,5R)-5-(3,5-bis(trifluoromethyl)phenyl)-3-((2-(4-fluoro-2-methoxy-5-(1-methylcyclopropyl)phenyl)-5,5-dimethylcyclohex-1-enyl)methyl)-4-methyloxazolidin-2-one], the “HDL-c Increase (%)” value in data set [1] was found to be 38%. Also, the IC50 in data set [2] came out at 0.006 µM.

A word on the IC50: it is the point on the concentration scale where inhibition reaches its midpoint.

Values taken from US9371294B2, “Cycloalkenyl aryl derivatives for CETP inhibitor” (CHONG KUN DANG PHARMACEUTICAL CORP., priority 2011, dated 2016).
